Measured values from US7622266B2, “Identification of a synthetic ligand for retinoic acid receptor beta” (Institut Pasteur, priority 1987, dated 2009).
Numbered stars: 1 amine (or outer) side, 2 acyl side, 3 side chain; on linkers, the order of the positions; unused ones are H or OH. Bridge positions count the residues as written; N and C are the ends. Square brackets hold non-standard residues; d marks the D form. Peptide text beside a SMILES is read from it. I, II: the chains in the order shown. Actinocin(9to1) = Cc1c2oc3c(C)ccc(C(=O)[*:1])c3nc-2c(C(=O)[*:2])c(N)c1=O; NMeV = CN[C@H](C(=O)O)C(C)C; Sar = CNCC(=O)O

Tests used:
[1] = target: T1, hap-ER chimaeric receptor (Homo sapiens, UniProt P10826, A104S/D127T/F149Y/F89A/G110A/H125P/I121D/K118G/K128N/K94Y/M120N/N119H/N129Q/N133D/N138K/Q146R/Q92N/R113K/R126A/R139S/S103W/S95A/T123M/T136R/V131T/V135N/Y142A); test: hap-ER chimaera trans-activation of oestrogen-responsive reporter gene (vit-tk-CAT); format: cell-based; conditions: RA at physiological concentrations
T1 construct: expressed in transfected cells
T1 sequence (P10826 1-448 isoform P10826-2 F82A/Q85N/K87Y/S88A/S96W/A97S/G103A/R106K/K111G/N112H/M113N/I114D/T116M/H118P/R119A/D120T/K121N/N122Q/V124T/N126D/V128N/T129R/N131K/R132S/Y135A/Q139R/F142Y): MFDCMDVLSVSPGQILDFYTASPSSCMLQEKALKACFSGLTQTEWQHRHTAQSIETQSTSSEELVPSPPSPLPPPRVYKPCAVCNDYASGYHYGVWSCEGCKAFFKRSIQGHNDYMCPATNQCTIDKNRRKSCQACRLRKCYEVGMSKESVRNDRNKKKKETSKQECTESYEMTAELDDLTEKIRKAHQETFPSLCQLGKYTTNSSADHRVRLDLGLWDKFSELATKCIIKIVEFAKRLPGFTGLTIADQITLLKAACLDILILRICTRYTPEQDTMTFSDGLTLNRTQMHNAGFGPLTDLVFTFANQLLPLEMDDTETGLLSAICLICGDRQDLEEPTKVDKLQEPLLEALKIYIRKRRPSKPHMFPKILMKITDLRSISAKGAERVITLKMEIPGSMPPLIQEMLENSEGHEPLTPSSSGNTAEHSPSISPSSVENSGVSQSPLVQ
Protocol: To test the possibility that the hap protein might also be a retinoid receptor, a chimaeric receptor was created by replacing the putative DNA binding domain of hap with that of the human oestrogen receptor (ER). The resulting hap-ER chimaera was then tested for its ability to trans-activate an oestrogen-responsive reporter gene (vit-tk-CAT) in the presence of possible receptor ligands. […] See Nature, 332:850-853 (1988).

[2] = tested on: transglutaminase expression in HL60 cells; conditions: read-out: ED 50 of RA-dependent transglutaminase expression; cited from earlier work
[3] = tested on: RAR β mRNAs in PLC/PRF/5 cells; format: cell-based, human
Protocol: (§1) More particularly, semi-confluent cells were grown for 6 hr in charcoal stripped medium and retinoic acid was then added to the medium at various concentrations (10^−10 M to 10^−6 M) for 4 hr. Control cells were treated with ethanol (E). Northern-blotting was performed as described in connection with FIG. 9, except that 30 μg of total RNA was used.
(§2) Exposure time was 12 hr for the β probe (FIG. 10B, lower panel) and four days for the α probe (FIG. 10B, upper panel).
(§3) Northern-blotting was carried on using 30 ug of total RNA. […] Exposure times were the same as for the experiments in FIG. 10.
(§4) Human tissue samples were obtained from early autopsies and kept at −80° C. prior to extraction. The HEPG 2 and PLC/PRF/5 hepatoma cell-lines were grown in Dulbecco's modified Eagle's medium with 10% fetal calf serum, glutamine, and antibiotics, in 5% CO2.
(§5) The RNA was prepared by the hot phenol procedure (Maniatis et al., 1982). Poly(A)^+ mRNA was prepared by oligo(dT)-cellulose ilchromatography. For Northern-blot analysis, total RNA (30 μg) or poly(A)^+ mRNA (5 μg) was denatured by glyoxal and fractionated on a 1.2% agarose gel (Maniatis et al., 1982). The nucleic acid was transferred to nylon membranes (Amersham) by blotting and attached by UV exposure plus baking.
(§6) The two cDNA inserts were subcloned into M13 and used to generate high specific activity (greater than 10^9 c.p.m./μg) single-stranded probes by elongation of a sequencing primer with ^32P labelled dTTP (3000 Ci/mmol) and unlabelled nucleotides by Klenow polymerase. The resulting double-stranded DNA was digested using a unique site in the vector, fractioned on a urea/acrylamide sequencing gel, and the labelled single-stranded insert electroeluted. These probes (5×10^6 cpm/ml) were hybridized to the filters in 7% (w/v) sodium dodecyl sulfate (SDS), 0.5 M NaPO4 pH 6.5, 1 mM ethylenediaminetetraacetate (EDTA), and 1 mg/ml bovine serum albumin (BSA) at 68° C. overnight. The filters were washed in 1% SDS, 50 mM NaCl, 1 mM EDTA at 68° C. for 10 min and autoradiographed at −70° C. using Kodak XAR films and intensifying screens. A mouse β actin probe was used to rehybridize the filters and check that all lanes contained equal amounts of RNA.
The relative intensity of hybridization signals in Northern-blotting and run-on experiments was estimated using a Hoefer scanning densitometer and the appropriate computer program.

RAR β = conditions: cited from earlier work
[4] = tested on: RAR α mRNAs in PLC/PRF/5 cells; test: Northern blot of RAR α mRNAs in PLC/PRF/5 cells; format: cell-based, human; conditions: RA up to 10^−6 M
Protocol: as §1, §2, §3, §4
as §5, with “baking. […]” for “baking.”

[5] = tested on: RAR β mRNAs in HEPG2 hepatoma cell-line; test: Northern blot of RAR β mRNAs in HEPG2 cells; format: cell-based, human
Protocol: as §4, §5
as §6, with “The filters were washed in 1% SDS, 50 mM NaCl, 1 mM EDTA at 68° C. for 10 min and autoradiographed at −70° C. using Kodak XAR films and intensifying screens. A mouse β actin probe was used to rehybridize the filters and check that all lanes contained equal amounts of RNA.” left out

[6] = tested on: nuclear extracts from HeLa cells; test: T3 binding positive control with HeLa nuclear extracts
Description: The results were-negative as well when the experiment was repeated with (3H)-retinol, -retinoic acid, and -testosterone, which represent three putative ligands for hap whose receptors have not yet been cloned. Although it cannot excluded that hap may encode a hormone independent transcriptional activator, it is more likely that hap product, i.e. the hap protein, is α receptor for a presently unidentified hormone.

[7] = target: T2, in vitro translated hap polypeptide (Homo sapiens, UniProt P10826); test: Hormone-binding assay with in vitro translated hap polypeptide; conditions: reticulocyte lysate; for specific binding of (125I)-labelled thyroid hormone to in vitro translated hap polypeptide: 0° C., filtration; for binding of (3H)-labelled ligand to in vitro translated hap polypeptide: overnight 0° C., Dextran coated charcoal
T2 construct: made in house; host or cells: rabbit reticulocyte lysate (in vitro translation of T7 transcripts of pCOD20)
T2 sequence (P10826 1-448 isoform P10826-2): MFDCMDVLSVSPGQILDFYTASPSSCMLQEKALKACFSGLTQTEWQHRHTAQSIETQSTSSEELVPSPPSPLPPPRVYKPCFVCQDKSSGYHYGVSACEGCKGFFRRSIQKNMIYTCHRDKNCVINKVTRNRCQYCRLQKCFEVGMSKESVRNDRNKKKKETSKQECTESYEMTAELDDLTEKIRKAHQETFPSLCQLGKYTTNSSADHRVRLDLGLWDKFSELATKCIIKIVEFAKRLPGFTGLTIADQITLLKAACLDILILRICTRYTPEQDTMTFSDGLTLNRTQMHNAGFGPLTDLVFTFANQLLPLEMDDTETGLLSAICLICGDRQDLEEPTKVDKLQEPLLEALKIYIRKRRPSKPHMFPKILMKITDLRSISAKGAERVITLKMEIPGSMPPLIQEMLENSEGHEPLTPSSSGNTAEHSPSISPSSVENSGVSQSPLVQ
Description: The ability to express functional receptors in vitro from cloned c-erbA/steroid receptor genes led to the use of an in vitro translation assay to identify a putative hap ligand.
The coding region of hap was cloned into pTZ18 plasmid vector to allow in vitro transcription with the T7 RNA polymerase and subsequent translation in reticulocyte lysates. More particularly, ^35S-methionine-labelled products synthesized using T7 polymerase-catalysed RNA transcripts were separated on a 12% SDS-polyacrylamide gel, which was fluorographed. (DMSO-PPO). The lanes in FIG. 5 are as follows:
pCOD20 and pCOD14 were linearized with HindIII. Capped mRNA was generated using 5 ug of DNA, 5 uM rNTP, 25 mM DTT, 100 U RNAsin (Promega), 50 U T7 Pol (Genofit) in 40 mM Tris pH 8, 8mM MgCl2, 2 mM spermidine, 50 mM NaCl, in 100 ul at 37° C. Capping was performed by omitting GTP and adding CAP (m^7 G (5′) ppp (5′) G) (Pharmacia) for the 15 first minutes of the reaction.
After at least 2 h of incubation at 0° C., free was separated from bound by filtration through millipore HAWP 02500 filters using 10 ml of ice cold buffer. For testosterone, retinol, retinoic acid 10 ul of lysate were added to 45 lambda of 20 mM Tris pH 7.3, 1 mM EDTA, 50 mM NaCl, 2 mM beta-mercaptoethanol and […], […] or […] (81 ci/mmol; 60 Ci/mmol; 46 Ci/mmol; Amersham). After an overnight incubation at 0° C. free was separated from bound by Dextran coated charcoal (0.5% Norit A−0.05% T70) and centrifugation. All experiments were performed in duplicates and parallel experiments were performed with 100 fold excess corresponding cold hormone.

Structure (SMILES): CC1=C(/C=C/C(C)=C/C=C/C(C)=C/C(=O)O)C(C)(C)CCC1 [RA, All-trans-retinoic acid]
- inducing the expression of the reporter gene by the hap-ER chimaeric receptor [1]: effective
- EC50 [2]: 50 nM
- latency of induction of RAR β mRNAs ([3]; RA 10^−6 M): one
- time after which induction of RAR β mRNAs is complete ([3]; RA 10^−6 M): four
- magnitude of the RA-induced upregulation of RAR β mRNAs ([3]; densitometry of Northern blot, 4 hr): 10 fold
- effect on the level of RAR α mRNAs [4]: no effect
- RA-induced stimulation of the levels of RAR β mRNAs [5]: 50 fold

Structure (SMILES): N[C@@H](Cc1cc(I)c(Oc2ccc(O)c(I)c2)c(I)c1)C(=O)O [T3, triiodothyronine]
- binding to nuclear extracts from HeLa cells [6]: detected

Structure (SMILES): N[C@@H](Cc1cc(I)c(Oc2cc(I)c(O)c(I)c2)c(I)c1)C(=O)O [T4, thyroxine]
- specific binding of (125I)-labelled thyroid hormone to in vitro translated hap polypeptide [7]: No specific fixation

Structure (SMILES): Cc1c2oc3c(C)ccc(C(=O)N[C@@H]4C(=O)N[C@H](C(C)C)C(=O)N5CCC[C@H]5C(=O)N(C)CC(=O)N(C)[C@@H](C(C)C)C(=O)O[C@@H]4C)c3nc-2c(C(=O)N[C@@H]2C(=O)N[C@H](C(C)C)C(=O)N3CCC[C@H]3C(=O)N(C)CC(=O)N(C)[C@@H](C(C)C)C(=O)O[C@@H]2C)c(N)c1=O [actinomycin D] (I: T[dV]P[Sar][NMeV] / II: T[dV]P[Sar][NMeV]; ester I:1-I:C, II:1-II:C; linker I:N-II:N via Actinocin(9to1))
- effect of inhibitor on the RA-induced increase in the levels of RAR β transcripts ([3]; RA 10^−6M, CH 10 μg/ml or AC 5 μg/ml, 4 hr): abolished

Structure (SMILES): CC1=C(/C=C/C(C)=C/C=C/C(C)=C/CO)C(C)(C)CCC1 [retinol]
- binding of (3H)-labelled ligand to in vitro translated hap polypeptide [7]: negative

Structure (SMILES): N[C@@H](Cc1ccc(Oc2cc(I)c(O)c(I)c2)c(I)c1)C(=O)O [reverse T3, 3,3′, 5′-triiodo-thyronine]
- specific binding of (125I)-labelled thyroid hormone to in vitro translated hap polypeptide [7]: No specific fixation

Structure (SMILES): C[C@]12CC[C@H]3[C@@H](CCC4=CC(=O)CC[C@@]43C)[C@@H]1CC[C@@H]2O [testosterone]
- binding of (3H)-labelled ligand to in vitro translated hap polypeptide [7]: negative
